Here are results for 17 compounds from patent publication US9187487B2, “Azaindole derivatives as tyrosine kinase inhibitors” (PRINCIPIA BIOPHARMA, INC., priority 2011, dated 2015).

This test has as its target recombinant JAK3 (catalytic domain, aa 781-1124) (Homo sapiens (Human), UniProt P52333). As to the kind of experiment: JAK3 Caliper Peptide Phosphorylation Assay. In kind it is biochemical. The conditions noted are these: fluorescently labeled Srctide substrate 1 uM; ATP at 1×Km (2 uM); 2 hours at 25° C. The method, then: JAK3 Caliper Peptide Phosphorylation Assay
Phosphorylation of the appropriate peptide substrate (fluorescently labeled Srctide) by recombinant JAK3 (catalytic domain, aa 781-1124) was measured in the presence and absence of different concentrations of test compounds. Test compound, enzyme, fluorescently labeled substrate, and cofactors (ATP and Mg^2+) were combined in a well of a microtiter plate and incubated for 2 hours at 25° C. The composition of the reaction buffer was 100 mM HEPES pH 7.5, 5 mM MgCl2, 0.01% Triton-X 100, 0.1% Bovine Serum Albumin, and 1% DMSO. Enzyme concentration in the final reaction mixture was 0.5 nM while peptide substrate was at 1 uM. ATP was used at 1×Km concentration corresponding to 2 uM. Serial dilutions (3-fold steps) of compounds were prepared in DMSO. At the end of the incubation, the reaction was stopped by the addition of 20 mM EDTA. Substrate and product (i.e. phosphorylated substrate) were separated electrophoretically and both were quantified by fluorescence intensity using the microfluidics-based LabChip 3000 Drug Discovery System from Caliper Life Sciences. Conversion for each well was calculated and plotted as function of test compound concentration. IC50 value was determined by fitting the data to a 4-parameter logistic model by non-linear regression (XLfit model 205). In every assay, Staurosporine was tested in the same manner as reference compound. Selectivity for JAK3 was determined using commercially available kinase cross-screening services (DiscoveRx, San Diego, Calif.).

A value given as a limit tells only on which side of the number the result lay.

Sequence of recombinant JAK3 (catalytic domain, aa 781-1124) (P52333 781-1124): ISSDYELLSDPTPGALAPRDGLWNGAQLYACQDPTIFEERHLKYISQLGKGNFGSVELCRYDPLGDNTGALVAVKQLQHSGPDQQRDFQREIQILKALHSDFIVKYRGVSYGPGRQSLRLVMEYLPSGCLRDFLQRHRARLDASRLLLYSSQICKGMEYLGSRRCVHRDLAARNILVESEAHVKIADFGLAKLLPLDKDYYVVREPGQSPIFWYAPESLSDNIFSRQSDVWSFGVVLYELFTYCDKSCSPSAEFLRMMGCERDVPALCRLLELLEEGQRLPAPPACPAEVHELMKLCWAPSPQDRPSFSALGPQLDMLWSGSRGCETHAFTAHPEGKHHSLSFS

Take `CN(C)C(=O)C(C#N)=Cc1ccc(Nc2cnc3[nH]cc(C(=O)NC(C)(C)C)c3n2)cc1` [compound 71, N-(tert-butyl)-2-((4-(2-cyano-3-(dimethylamino)-3-oxoprop-1-en-1-yl)phenyl)amino)-5H-pyrrolo[2,3-b]pyrazine-7-carboxamide]: the IC50 (as a rule, the midpoint of a concentration-inhibition curve) was 0.2 nM.

Regarding `CN(C)C(=O)C(C#N)=Cc1ccc(Nc2cnc3[nH]cc(C(=O)C(C)(C)C)c3n2)s1` [compound 73, 2-cyano-N,N-dimethyl-3-(5-((7-pivaloyl-5H-pyrrolo[2,3-b]pyrazin-2-yl)amino)thiophen-2-yl)acrylamide], the half-maximal inhibitory concentration (IC50) came to 210 nM.

In the case of `CC(C)(C)C(=O)c1c[nH]c2ncc(Nc3ccc(C=C(C#N)C(=O)N4CCCCC4)cc3)nc12` [compound 76, 2-(piperidine-1-carbonyl)-3-(4-((7-pivaloyl-5H-pyrrolo[2,3-b]pyrazin-2-yl)amino)phenyl)-acrylonitrile], the concentration for half-maximal inhibition (IC50) was 1 nM.

`CCNC(=O)C(C#N)=Cc1ccc(Nc2cnc3[nH]cc(C(=O)C(C)(C)C)c3n2)cc1` [compound 77, 2-cyano-3-(4-((7-pivaloyl-5H-pyrrolo[2,3-b]pyrazin-2-yl)amino)phenyl)-N-ethylacrylamide]: the IC50 is 1 nM.

For `CCN1C(=O)SC(=Cc2ccc(Nc3cnc4[nH]cc(C(=O)C(C)(C)C)c4n3)cc2)C1=O` [compound 78, 3-ethyl-5-(4-((7-pivaloyl-5H-pyrrolo[2,3-b]pyrazin-2-yl)amino)benzylidene)thiazolidine-2,4-dione], the IC50 came to 33.5 nM.

For `CCOC(=O)C(C#N)=Cc1ccc(Nc2cnc3[nH]cc(C(=O)C(C)(C)C)c3n2)cc1` [compound 79, ethyl 2-cyano-3-(4-((7-pivaloyl-5H-pyrrolo[2,3-b]-pyrazin-2-yl)amino)phenyl)acrylate], the 50% inhibitory concentration (IC50) is 100 nM.

As to `CC(C)NC(=O)c1c[nH]c2ncc(Nc3ccc(C=C(C#N)C(=O)N4CCOCC4)cc3)nc12` [compound 80, N-(isopropyl)-2-((4-(2-cyano-3-morpholino-3-oxoprop-1-en-1-yl)phenyl)amino)-5H-pyrrolo[2,3-b]pyrazine-7-carboxamide], the IC50 was 0.7 nM.

Take `CC(C)(C)C(=O)c1c[nH]c2ncc(Nc3ccc(C=C(C#N)S(C)(=O)=O)cc3)nc12` [compound 81, 2-(methylsulfonyl)-3-(4-((7-pivaloyl-5H-pyrrolo[2,3-b]pyrazin-2-yl)amino)phenyl)-acrylonitrile]: the 50% inhibitory concentration (IC50) was 0.6 nM.

Take `CC(C)(C)C(=O)c1c[nH]c2ncc(Nc3ccc(C=C(C#N)c4nccs4)cc3)nc12` [compound 82, 3-(4-((7-pivaloyl-5H-pyrrolo[2,3-b]pyrazin-2-yl)amino)phenyl)-2-(thiazol-2-yl)acrylonitrile]: the IC50 is 38.3 nM.

Regarding `CC(C)NC(=O)c1c[nH]c2ncc(Nc3ccc(C=C(C#N)C(=O)N4CCNCC4)cc3)nc12` [compound 83, 2-((4-(2-cyano-3-oxo-3-(piperazin-1-yl)prop-1-en-1-yl)phenyl)amino)-N-isopropyl-5H-pyrrolo[2,3-b]pyrazine-7-carboxamide], the half-maximal inhibitory concentration (IC50) was determined as 0.2 nM.

Take `CN(C(=O)C(C#N)=Cc1ccc(Nc2cnc3[nH]cc(C(=O)C(C)(C)C)c3n2)cc1)c1ccccc1` [compound 85, 2-cyano-N-methyl-N-phenyl-3-(4-((7-pivaloyl-5H-pyrrolo[2,3-b]pyrazin-2-yl)amino)phenyl)-acrylamide]: the IC50 was 5.5 nM.

For `CN(C)CCN1C(=O)SC(=Cc2ccc(Nc3cnc4[nH]cc(C(=O)C(C)(C)C)c4n3)cc2)C1=O` [compound 88, 3-(2-(dimethylamino)ethyl)-5-(4-((7-pivaloyl-5H-pyrrolo[2,3-b]pyrazin-2-yl)amino)-benzylidene)thiazolidine-2,4-dione], the IC50 stood at 3 nM.

As for `CC(C)(C)C(=O)c1c[nH]c2ncc(Nc3ccc(C=C4SC(=O)N(CCN)C4=O)cc3)nc12` [compound 89, 3-(2-aminoethyl)-5-(4-((7-pivaloyl-5H-pyrrolo[2,3-b]pyrazin-2-yl)amino)benzylidene)thiazolidine-2,4-dione], the IC50 is 3 nM.

Take `CN(C)C(=O)C(C#N)=Cc1ccc(-c2cnc3[nH]cc(C(=O)C(C)(C)C)c3n2)cc1` [compound 96, 2-cyano-N,N-dimethyl-3-(4-(7-pivaloyl-5H-pyrrolo[2,3-b]pyrazin-2-yl)phenyl)acrylamide]: the IC50 is 680 nM.

For the compound `CN(C)C(=O)C(C#N)=Cc1cccc(-c2cnc3[nH]cc(C(=O)C(C)(C)C)c3n2)c1` [compound 97, 2-cyano-N,N-dimethyl-3-(3-(7-pivaloyl-5H-pyrrolo[2,3-b]pyrazin-2-yl)phenyl)acrylamide], the IC50 worked out at 104 nM.

Consider `CN(C)C(=O)C(C#N)=Cc1cccc(Oc2cnc3[nH]cc(C(=O)C(C)(C)C)c3n2)c1` [compound 100, 2-cyano-N,N-dimethyl-3-(3-((7-pivaloyl-5H-pyrrolo[2,3-b]pyrazin-2-yl)oxy)phenyl)acrylamide], for which the IC50 was over 5000 nM.

Regarding `CC(C)(C)C(=O)c1c[nH]c2ncc(-c3cccc(NC(=O)C(C#N)=CC4CC4)c3)nc12` [compound 102, 2-cyano-3-cyclopropyl-N-(3-(7-pivaloyl-5H-pyrrolo[2,3-b]pyrazin-2-yl)phenyl)acrylamide], the 50% inhibitory concentration (IC50) came out at 345 nM.
